melting point | Compound
107 to 110 °C | Cl.N[C@@H](CCC(=O)OCC#CCO[N+](=O)[O-])C(=O)O
160 to 162 °C | Cl.N[C@@H](CCC(=O)O[C@H]1CO[C@H]2[C@@H]1OC[C@H]2O[N+](=O)[O-])C(=O)O (stereo in doubt)
139 °C (dec.) | Cl.N[C@@H](CCC(=O)OC(CO[N+](=O)[O-])CO[N+](=O)[O-])C(=O)O
70 to 72 °C (dec.) | Cl.N[C@@H](CCC(=O)N1CCCC(CO[N+](=O)[O-])C1)C(=O)O (some centres unmarked)
132 to 135 °C | CC(C)(COC(=O)CC[C@H](N)C(=O)O)CO[N+](=O)[O-].Cl
90 to 94 °C | Cl.N[C@@H](CCC(=O)OCCCC(CO[N+](=O)[O-])O[N+](=O)[O-])C(=O)O (some centres unmarked)
57 to 60 °C | Cl.N[C@@H](CCC(=O)NCCCO[N+](=O)[O-])C(=O)O
65 to 68 °C | CC(C)(CNC(=O)CC[C@H](N)C(=O)O)CO[N+](=O)[O-].Cl
135 to 138 °C | Cl.N[C@@H](CCC(=O)OCc1ccc(CO[N+](=O)[O-])cc1)C(=O)O
137 to 140 °C | Cl.N[C@@H](CCC(=O)N1CCC(CCO[N+](=O)[O-])CC1)C(=O)O
137 to 139 °C | Cl.N[C@@H](CCC(=O)OCCCO[N+](=O)[O-])C(=O)O

Reference: US20070037821A1, “Nitrosated glutamic acid compounds, compositions and methods of use” (NITROMED, INC., priority 2003, published 2007)
